The values that follow come from ChEMBL document CHEMBL1201862, “PubChem BioAssay data set” (2004).

Test systems include 786-0; A498; A549; CAKI-1; COLO 205; HCT-116; HCT-15; Hs-578T; MDA-MB-435; MOLT-4; NCI-H226; OVCAR-5; SF-295; SK-MEL-28; SK-MEL-5; SK-OV-3; T47D; TK-10; U-251; UACC-257.
What all share (assay): NCI tumour cell line growth inhibition, 48 h

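Test compounds were applied to cells in 96-well plates for 48 hours at 5 doses. GI50 is the concentration that inhibits growth by half.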 Activity calls are given as the source filed them. Cut-off read from the data, not from the text of the source: active = GI50 up to about 1.1 µM and inactive = higher. Some results are limits rather than exact numbers.

Consider `Cc1cccc2c(N)c3cccc(C(=O)NCC[N+](C)(C)Cc4sccc4[N+](=O)[O-])c3nc12`, for which the GI50 with 786-0 was 5.56 µM (inactive); in the assay with A498 it was 27 µM (inactive); in the assay with A549 it was 0.491 µM (active); in the assay on CAKI-1 it was 2.55 µM (inactive); in the assay with COLO 205, 13.3 µM (inactive); with HCT-116, 12.1 µM (inactive). In addition, the GI50 is 6.18 µM in the assay on HCT-15; 1.11 µM (active) with Hs-578T; 40.6 µM (inactive) in the assay with MDA-MB-435; 0.871 µM (active) with MOLT-4; 6.18 µM (inactive) with NCI-H226; 5.37 µM (inactive) with OVCAR-5. Further, the GI50 is 2.64 µM (inactive) in the assay with SF-295; 37.3 µM (inactive) in the assay with SK-MEL-28; 5.21 µM (inactive) in the assay with SK-MEL-5; 10.8 µM (inactive) in the assay on SK-OV-3; 36.6 µM (inactive) in the assay on T47D; 25.9 µM (inactive) in the assay with TK-10. The GI50 is 6.47 µM (inactive) with U-251 and 26.9 µM (inactive) in the assay on UACC-257.

As for `O=C1CSC(c2cccc(Cl)c2)N1c1ccc(-c2ccc(-n3c(-c4ccccc4)nc4ccccc4c3=O)cc2)cc1` (stereo not given), the GI50 is 43.6 µM (inactive) in the assay with 786-0; > 100 µM (inactive) with A498; 54.2 µM (inactive) in the assay on A549; > 100 µM (inactive) in the assay on CAKI-1; 34.6 µM (inactive) with COLO 205; 45.6 µM (inactive) in the assay on HCT-116. For the same molecule, the GI50 is 33.5 µM with HCT-15; > 100 µM (inactive) in the assay on Hs-578T; 52.1 µM (inactive) with MDA-MB-435; 20.1 µM (inactive) with MOLT-4; 67 µM (inactive) in the assay on NCI-H226; 64.6 µM (inactive) in the assay with OVCAR-5. The GI50 with SF-295 is 51.8 µM (inactive); in the assay on SK-MEL-28 it was 75.3 µM (inactive); in the assay with SK-MEL-5, 25.5 µM (inactive); in the assay with SK-OV-3, > 100 µM (inactive); in the assay on T47D, 24.3 µM (inactive); with TK-10, 32.6 µM (inactive). Also, the GI50 in the assay on U-251 was 52.1 µM (inactive); with UACC-257, 80.5 µM (inactive).

For the molecule `CCOC(=O)C(Cc1cc(OC)c(CC(C(=O)OCC)C(=O)OCC)cc1OC)C(=O)OCC`, the GI50 was 61.5 µM (inactive) in the assay on 786-0; > 100 µM (inactive) with A498; > 100 µM (inactive) with A549; > 100 µM (inactive) in the assay with CAKI-1; > 100 µM (inactive) in the assay on COLO 205; > 100 µM (inactive) in the assay with HCT-116. Further, the GI50 in the assay on HCT-15 is > 100 µM; in the assay with Hs-578T it was > 100 µM (inactive); with MDA-MB-435 it was > 100 µM (inactive); in the assay on MOLT-4, > 100 µM (inactive); in the assay on NCI-H226, > 91.4 µM (inactive); in the assay on OVCAR-5 it was > 100 µM (inactive). The GI50 with SF-295 is > 92.7 µM (inactive); with SK-MEL-28 it was > 100 µM (inactive); in the assay with SK-MEL-5, > 100 µM (inactive); with SK-OV-3, > 93.8 µM (inactive); with T47D it was > 100 µM (inactive); in the assay with TK-10 it was > 100 µM (inactive). Also, the results for the GI50 with U-251 and with UACC-257 were > 66.4 µM (inactive) and > 100 µM (inactive), respectively.

Take `COc1ccc(/C(Cl)=C(\CNc2ccccn2)c2ccccc2)cc1OC`: the GI50 in the assay with 786-0, in the assay on A498, in the assay on A549, in the assay with CAKI-1, in the assay on COLO 205 and in the assay on HCT-116 was > 100 µM (inactive) in each case. The GI50 is > 100 µM in the assay on HCT-15; > 100 µM (inactive) in the assay on Hs-578T; > 100 µM (inactive) in the assay with MDA-MB-435; > 100 µM (inactive) in the assay on MOLT-4; > 100 µM (inactive) with NCI-H226; > 100 µM (inactive) in the assay on OVCAR-5. Moreover, the GI50 in the assay on SF-295, in the assay on SK-MEL-28, in the assay on SK-MEL-5, in the assay with SK-OV-3, with T47D and with TK-10 was > 100 µM (inactive) in each case. The GI50 in the assay with U-251 and in the assay on UACC-257 was > 100 µM (inactive) in each case.

Turning to `CC(=O)N(C(C)=O)c1ncc(-n2nc(-c3ccccc3)cc2-c2ccccc2)c(-c2ccccc2)n1`, the GI50 was > 10 µM (inactive) with 786-0; > 10 µM (inactive) with A498; > 10 µM (inactive) with A549; > 10 µM (inactive) in the assay with CAKI-1; > 10 µM (inactive) with COLO 205; 4.82 µM (inactive) in the assay with HCT-116. Moreover, the GI50 with HCT-15 is 8.91 µM; in the assay with Hs-578T it was > 10 µM (inactive); with MDA-MB-435, 3.52 µM (inactive); with MOLT-4, 5.22 µM (inactive); in the assay with NCI-H226, > 10 µM (inactive); in the assay on OVCAR-5 it was > 10 µM (inactive). Also, the GI50 in the assay with SF-295 is > 10 µM (inactive); in the assay with SK-MEL-28 it was > 10 µM (inactive); in the assay on SK-MEL-5 it was 4.12 µM (inactive); with SK-OV-3 it was > 10 µM (inactive); in the assay on T47D it was > 10 µM (inactive); with TK-10, > 10 µM (inactive). Further, the GI50 with U-251 and with UACC-257 was > 10 µM (inactive) throughout.

With `C=CCC1(O)c2ccccc2C(=O)c2c(O)ccc(O)c21` (stereo not given), the GI50 was 11.7 µM (inactive) in the assay on 786-0; 4.36 µM (inactive) in the assay on A498; 7.55 µM (inactive) in the assay on A549; 15.5 µM (inactive) with CAKI-1; 13.3 µM (inactive) in the assay on COLO 205; 5.42 µM (inactive) with HCT-116. Besides, the GI50 in the assay on HCT-15 was 3.61 µM; with Hs-578T, 4.24 µM (inactive); in the assay on MDA-MB-435, 1.8 µM (inactive); in the assay on MOLT-4, 1.93 µM (inactive); in the assay on NCI-H226, 7.03 µM (inactive); with OVCAR-5, 17.2 µM (inactive). Moreover, the GI50 in the assay on SF-295 was 5.07 µM (inactive); with SK-MEL-28 it was 8.28 µM (inactive); with SK-MEL-5, 8.2 µM (inactive); in the assay on SK-OV-3 it was 10.4 µM (inactive); with T47D, 7.74 µM (inactive); in the assay on TK-10, 14.6 µM (inactive). Moreover, the GI50 in the assay with U-251 is 3.97 µM (inactive); in the assay on UACC-257, 5.3 µM (inactive).

In the case of `COC(O)C(=O)c1ccc2c(c1)CC1(C2)Cc2cc3c(cc2C1=O)CCC3` (stereo not given), the GI50 is 17.6 µM (inactive) in the assay with 786-0; 18.7 µM (inactive) in the assay on A498; 20.2 µM (inactive) in the assay on A549; 16.9 µM (inactive) with CAKI-1; 20 µM (inactive) in the assay on COLO 205; 18.9 µM (inactive) with HCT-116. Also, the GI50 with HCT-15 was 22.2 µM; with Hs-578T, 20.5 µM (inactive); in the assay with MDA-MB-435, 17.1 µM (inactive); in the assay with MOLT-4 it was 15 µM (inactive); with NCI-H226, 19.5 µM (inactive); with OVCAR-5 it was 22 µM (inactive). Further, the GI50 is 23.7 µM (inactive) in the assay on SF-295; 15.1 µM (inactive) with SK-MEL-28; 16 µM (inactive) with SK-MEL-5; 16.7 µM (inactive) in the assay with SK-OV-3; 19.2 µM (inactive) with T47D; 21.6 µM (inactive) with TK-10. Also, the GI50 with U-251 was 18.4 µM (inactive); with UACC-257, 21.4 µM (inactive).

Regarding `CCC(=O)NCCc1c[nH]c2ccc(OC)cc12`, the GI50 in the assay on 786-0, with A498, in the assay with A549, in the assay with CAKI-1, in the assay on COLO 205 and with HCT-116 was > 100 µM (inactive) each time. The GI50 in the assay on HCT-15 was > 100 µM; with Hs-578T, > 100 µM (inactive); with MDA-MB-435, > 100 µM (inactive); in the assay with MOLT-4, > 100 µM (inactive); with NCI-H226, > 100 µM (inactive); in the assay with OVCAR-5 it was > 100 µM (inactive). For the same molecule, the GI50 in the assay on SF-295, with SK-MEL-28, in the assay with SK-MEL-5, in the assay on SK-OV-3, in the assay on T47D and in the assay with TK-10 was > 100 µM (inactive) each time. Also, the GI50 with U-251 and with UACC-257 was > 100 µM (inactive) each time.

Take `CC(CN1NC12CCCC2)N1NC12CCCC2` (stereo not given): the GI50 in the assay on 786-0, in the assay on A498, in the assay on A549, with CAKI-1, with COLO 205 and with HCT-116 was > 100 µM (inactive) each time. For the same molecule, the GI50 in the assay with HCT-15 is > 100 µM; in the assay on Hs-578T, > 100 µM (inactive); in the assay on MDA-MB-435, > 100 µM (inactive); in the assay on MOLT-4 it was > 100 µM (inactive); in the assay on NCI-H226, > 100 µM (inactive); in the assay with OVCAR-5, > 100 µM (inactive). Besides, the GI50 in the assay with SF-295, with SK-MEL-28, in the assay with SK-MEL-5, in the assay with SK-OV-3, with T47D and with TK-10 was > 100 µM (inactive) in each case. Moreover, the figures for the GI50 with U-251 and in the assay on UACC-257 were > 100 µM (inactive) and 60.8 µM (inactive), respectively.

For `COC(=O)c1c(OC(C)=O)ccc2c1c1c(n2Cc2ccccc2)C(=O)c2ccccc2C1=O`, the GI50 is 25.6 µM (inactive) with 786-0; 19.4 µM (inactive) in the assay with A498; 26.4 µM (inactive) in the assay on A549; 22 µM (inactive) in the assay on CAKI-1; 16.9 µM (inactive) in the assay on COLO 205; 15.7 µM (inactive) in the assay with HCT-116. Further, the GI50 in the assay with HCT-15 is 19.7 µM; in the assay with Hs-578T, 19.9 µM (inactive); in the assay with MDA-MB-435 it was 18.7 µM (inactive); in the assay on MOLT-4, 16.8 µM (inactive); in the assay on NCI-H226, 23 µM (inactive); in the assay on OVCAR-5, 20.1 µM (inactive). The GI50 in the assay on SF-295 is 17.5 µM (inactive); with SK-MEL-28, 21.4 µM (inactive); in the assay on SK-MEL-5 it was 14.2 µM (inactive); with SK-OV-3 it was 23.6 µM (inactive); with T47D, 20 µM (inactive); in the assay on TK-10, 33.7 µM (inactive). For the same molecule, the GI50 is 19.4 µM (inactive) in the assay on U-251 and 10.7 µM (inactive) in the assay with UACC-257.
